Test results: patent US7605175B2, “Inhibitors of cyclin-dependent kinases, compositions and uses related thereto” (GPC Biotech AG, priority 2001, dated 2009)
pIC50: −log10 of the molar value.

Columns and labels:
[1] = biological target: T1, Cdk4/cyclin D1 (Homo sapiens, UniProt P11802); test: Biochemical kinase assay Cdk4/cyclin D1; conditions: Table 6
T1 construct: made in house; host or cells: Sf9 insect cells
From the text: (§1) Enzymes: Cdc2/cyclin B was obtained from commercial sources. Cdk2/his-cyclin Eshort was expressed in Sf9 cells. Cdk2/cyclin A, cdk4/cyclin D1, and cdk6/cyclin D2 were expressed in Sf9 cells. Protein kinase A (catalytic subunit, from bovine heart) and protein kinase C (mixed isozymes from rat brain) were obtained from commercial sources.
(§2) Substrates: Histone H1 was from commercial sources. GST-Rb is glutathione-S-trans-ferase fused to the N-terminal of residues 379-928 of the Rb protein.
(§3) Cdk2/cyclin E, Cdk2/cyclin A, Cdk4/cyclin D1, and Cdk6/cyclin D2 activity was determined using a glutathione-sepharose capture assay. The enzymes were expressed in Sf9 insect cells as heterodimers, and the substrate (GST-Rb) was glutathione-S-transferase fused to residues 379 to 928 of Rb retinoblastoma protein, expressed in E. coli. The assay solution contained 50 mM Tris.HCl, 10 mM MgCl2, 1 mM dithiothreitol, 50 μM adenosine triphosphate, 2 μCi [γ-^33P]adenosine triphosphate, 10% dimethylsulfoxide (from compounds), pH 7.5, 40 μg GST-Rb, and enzyme in a 100 μL volume. Compounds were added at various concentrations between 1 nM and 10 μM. The reaction was allowed to proceed for 15 min at 30° C. and was stopped by the addition of 70 μL of stop solution (237 mM disodium ethylene-diamine tetraacetate, 105 mM adenosine triphosphate, pH 8.0). The GST-Rb was captured by binding to glutathione-sepharose bead (Amersham) for 110 min, and the suspension was filtered through a glass fiber filter. After washing the retained beads five time with phosphate-buffered saline containing 0.3% (w/v) Tween-20, the amount of ^33P incorporated was determined by scintillation counting after adding 100 μL scintillant. Relative activity was determined by dividing the amount of radioactivity incorporated in the presence of compound by the amount of radioactivity incorporated in a control experiment containing DMSO alone but no compound. The background radioactivity, determined in an experiment containing 50 mM disodium ethylenediamine tetraacetate in place of compound, was subtracted from all results before calculations.

[2] = tested on: HCT-116 cells; test: Calcein AM viability assay, HCT-116; type: cell-based; conditions: Homo sapiens
Protocol: The potency of Cdk inhibitors, as measured by loss of cellular viability, was determined with the Calcein AM assay (Molecular Probes). Calcein AM is a substrate of intracellular esterases, which is cleaved only in viable cells to generate a fluorescent product that can be quantified with a fluorescent plate reader. The fluorescent signal is proportional to the number of viable cells, and thus loss of signal in response to the exposure of cells to Cdk inhibitors correlates with a loss of viability. This assay can distinguish cell cycle arrest, in which cells may still by viable, from loss of viability and is thus well suited for the evaluation of Cdk inhibitors. A compound that is a potent cytotoxic, may cause significant loss of cell viability in such assay.
Cellular IC50's were determined in the human colorectal carcinoma cell line, HCT-116, and the normal human fibroblast, IMR90. Protein adjusted IC50's were also determined in HCT-116.
HCT-116 or IMR90 cells were recovered from sub-confluent plates by trypsinization and 1,000 or 4,000 cells, respectively, were plated in 24-well dishes and incubated overnight at 37° C., 5% CO2. HCT-116 cells were cultured in RPMI-1640, 10% FCS, and IMR90 cells were cultured in Minimum Essential Medium-alpha, 10% FCS. After overnight incubation to allow adherence, the media was aspirated from each well and replaced with media containing a test compound at a concentration from 0 to 250 nM, spanning a total of 7 doses. The plates were returned to the incubator and cultured for an additional 72 hours (3 days). […] After 72-hours incubation with the test compound, the cells were washed twice with 1×PBS, taking special care to remove all residual buffer.
A 5 μM Calcein AM solution was prepared by dissolving a […] aliquot of Calcein (Molecular Probes catalog # C3100) in 50 μl DMSO. After the Calcein had completely dissolved (10 minutes at room temperature), it was diluted into 10 ml PBS. Calcein/PBS (0.5 ml) was added to each well. The plates were incubated for 75 minutes at 37° C. (protected from light) and the fluorescent signal was read on a fluorescent plate reader (excitation 485/20 and emission 530/25).

[3] = biological target: T2, Cdk2/cyclin E (Homo sapiens, UniProt P24941); test: Biochemical kinase assay Cdk2/cyclin E; conditions: Table 6
T2 construct: made in house; host or cells: Sf9 insect cells
From the text: as §1, §2, §3

[4] = biological target: T3, Cdc2/cyclin B (Homo sapiens, UniProt P06493); test: Biochemical kinase assay Cdc2/cyclin B; conditions: Table 6
T3 construct: purchased
T3 sequence (P06493 whole entry, species assumed): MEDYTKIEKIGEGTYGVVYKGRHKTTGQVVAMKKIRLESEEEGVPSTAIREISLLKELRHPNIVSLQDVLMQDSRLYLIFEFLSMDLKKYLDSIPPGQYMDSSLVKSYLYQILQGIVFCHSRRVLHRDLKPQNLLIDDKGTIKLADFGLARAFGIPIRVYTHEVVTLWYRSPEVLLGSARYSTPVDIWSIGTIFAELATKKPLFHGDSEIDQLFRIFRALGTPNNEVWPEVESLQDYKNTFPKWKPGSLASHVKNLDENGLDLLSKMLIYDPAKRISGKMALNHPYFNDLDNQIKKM
T3 sequence (P14635 whole entry partner, species assumed): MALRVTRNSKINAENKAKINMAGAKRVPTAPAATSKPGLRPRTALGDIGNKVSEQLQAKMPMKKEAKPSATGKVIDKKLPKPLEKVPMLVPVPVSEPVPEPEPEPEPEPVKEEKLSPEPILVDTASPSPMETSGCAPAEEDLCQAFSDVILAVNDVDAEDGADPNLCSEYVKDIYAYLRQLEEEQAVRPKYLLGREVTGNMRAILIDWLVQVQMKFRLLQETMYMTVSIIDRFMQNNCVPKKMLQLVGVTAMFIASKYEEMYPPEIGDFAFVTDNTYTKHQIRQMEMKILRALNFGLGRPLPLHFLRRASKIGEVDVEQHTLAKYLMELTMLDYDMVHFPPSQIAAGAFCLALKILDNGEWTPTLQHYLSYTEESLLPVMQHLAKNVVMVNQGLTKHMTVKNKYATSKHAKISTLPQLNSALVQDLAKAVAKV
From the text: as §1, §2
Assays: Cdc2/cyclinB activity was determined by measuring incorporation of radio-activity from adenosine [γ-^32P]triphosphate into Histone H1 using a TCA precipitation assay. Cdc2/cyclin B kinase and Histone H1 were obtained from commercial sources. The final assay solution contained 50 mM Tris.HCl, 10 mM MgCl2, 1 mM dithiothreitol, 50 μM adenosine triphosphate, 2 μCi ^32P, 10% dimethylsulfoxide (from compounds), pH 7.5, 20 μg Histone H1, 6 U enzyme in a 50 μL volume. Compounds were added at various concentrations between 1 nM and 10 μM. The reaction was started with the addition of enzyme, allowed to proceed for 20 min at 30° C., and stopped by the addition of 20 μL of stop solution (237 mM disodium ethylenediamine tetraacetate, 105 mM adenosine triphosphate, pH 8.0). The protein was precipitated by the addition of 35 μL 70% (w/v) trichloroacetic acid, and the precipitate was captured on a 96-well glass fiber filter plate (Millipore, Inc.), which had been wet with 25% (w/v) trichloroacetic acid. The filter was washed ten times with 25% (w/v) trichloroacetic acid, and the amount of incorporated ^32P was determined by scintillation counting after adding 100 μL scintillant (Microscint 20, Packard Instruments). Relative activity was determined by dividing the amount of radioactivity incorporated in the presence of compound by the amount of radioactivity incorporated in a control experiment containing DMSO alone but no compound. The background radioactivity, determined in an experiment containing 50 mM EDTA in place of compound, was subtracted from all results before calculations.

[5] = tested on: HCT-116 cells; test: BrdU incorporation assay; type: cell-based; conditions: Homo sapiens, HCT-116, 24 h; read-out: Brd U, concentration that inhibits BrdU incorporation by 50%
Protocol: This method measured the percentage of cells that incorporated the nucleotide analog, BrdU, into newly synthesized DNA as cells progressed through the S phase of the cell cycle. The inhibition of BrdU incorporation was used as a measure of a Cdk inhibitor's effect on S phase progression and DNA replication.
3 sets of HCT-116 cells (100,000 cells/set) were plated in T25 flasks and incubated with a test compound as above. Analysis was done at 24, 48, and 72 hours. BrdU was added to each T-25 flask from a stock of 10 mg/ml to a final concentration of 10 μM and the cells were incubated for an additional 16-18 hours at 37° C. The cells were then prepared for flow cytometric analysis according to manufacturer's protocol (BrdU Flow kit, BD-Pharmingen catalogue #2354KK) as follows:
Cells were harvested (adherent and floating) from the T25 flasks directly into Falcon 12×75 flow cytometric tubes as above followed by fixation and permeabilization with the addition of 100 μl of Cytofix/Cytoperm buffer (30 minutes, room temperature). The cells were then washed with 1 ml of Perm Wash buffer and the cell pellets were resuspended in 100 μl Cytoperm Plus buffer and incubated on ice for 10 minutes. The cells were then washed again with 1 ml of Perm Wash buffer and the fixation was repeated in 100 μl of Cytofix/Cyto Perm buffer for 10 minutes at room temperature. The cells were then washed with 1 ml of Perm Wash buffer. The cells were next treated for one hour at 37° C. with 100 μl DNase to expose incorporated BrdU followed by another wash step with 1 ml of Perm Wash buffer. […] Cells were protected from light and incubated at room temperature for 20-30 minutes. Following the incubation, the cells were washed with 1 ml of Perm Wash buffer, resuspended in 300 μl of 2% FBS in PBS, and analyzed on the flow cytometer. Results are presented in Table 2 as the concentration of compound (μM) that inhibits of BrdU incorporation by 50%.

[6] = HCT-116, non-protein adjusted, Table 6, read-out: HCT-116 viability IC50

T1 sequence (P11802 whole entry, species assumed): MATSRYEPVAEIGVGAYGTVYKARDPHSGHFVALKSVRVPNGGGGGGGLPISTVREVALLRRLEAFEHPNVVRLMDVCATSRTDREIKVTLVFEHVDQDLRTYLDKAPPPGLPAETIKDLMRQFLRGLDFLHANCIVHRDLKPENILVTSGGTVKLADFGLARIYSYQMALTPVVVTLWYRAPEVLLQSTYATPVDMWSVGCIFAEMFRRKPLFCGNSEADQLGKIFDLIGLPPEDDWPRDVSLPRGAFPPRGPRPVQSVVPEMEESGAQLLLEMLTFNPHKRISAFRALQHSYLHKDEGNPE
T1 sequence (P24385 whole entry partner, species assumed): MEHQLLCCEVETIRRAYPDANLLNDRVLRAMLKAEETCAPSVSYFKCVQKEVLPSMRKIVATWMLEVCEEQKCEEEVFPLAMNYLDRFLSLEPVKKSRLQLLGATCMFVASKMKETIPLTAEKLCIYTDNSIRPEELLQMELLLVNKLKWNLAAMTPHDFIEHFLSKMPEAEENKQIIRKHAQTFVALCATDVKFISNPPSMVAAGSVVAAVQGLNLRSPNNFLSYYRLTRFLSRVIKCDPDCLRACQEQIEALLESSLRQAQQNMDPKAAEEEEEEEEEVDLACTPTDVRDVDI

| SMILES | pIC50 [1] | pIC50 [2, 6] | pIC50 [3] | pIC50 [4] | pIC50 [5] | pIC50 ([2]; HCT-116, 72 h, Calcein AM, 72 hours, read-out: HCT-116 IC50 Viability) |
| --- | --- | --- | --- | --- | --- | --- |
| CC(C)c1nn(-c2c(Cl)cccc2Cl)c2nc(Cc3ccc(OCC(C)(C)O)cc3)[nH]c(=O)c12 [Compound A63] | > 6.00 | > 7.00 | > 7.00 | > 7.00 |  |  |
| CC(C)c1nn(-c2c(Cl)cccc2Cl)c2nc(Cc3ccc(O)cc3)[nH]c(=O)c12 [Compound A4] | > 7.00 | > 7.00 | > 8.00 | > 7.00 |  |  |
| CC(C)N1CCN(C(=O)COc2ccc(-c3[nH]nc4c3C(=O)c3c(NC(=O)NN5CCOCC5)cccc3-4)cc2)CC1 [Compound A76] | > 7.00 | > 7.00 | > 7.00 | > 7.00 |  |  |
| CC(C)c1nn(-c2c(Cl)cc(Cl)cc2Cl)c2nc(Cc3ccc(OCCN4CCN(C(C)C)CC4)cc3)[nH]c(=O)c12 [Compound A1] | > 6.00 | > 7.00 | > 8.00 | > 7.00 |  |  |
| CC(C)c1nn(-c2c(Cl)cccc2Cl)c2nc(Cc3ccc(NS(=O)(=O)CCCN4CCOCC4)cc3)[nH]c(=O)c12 [Compound A30] | > 6.00 | > 7.00 | > 7.00 | > 6.00 |  |  |
| Cc1cc(OCCN2CCCC2)ccc1-c1[nH]nc2c1C(=O)c1c(NC(=O)NN3CCN(C)CC3)cccc1-2 [L] |  |  |  |  | > 7.00 | > 7.00 |
